Laboratory results published in patent US4478849A, “Secondary amines, their preparation and use in pharmaceutical compositions” (Beecham Group Limited, priority 1978, dated 1984).

Tests used:
[1] = test system: genetically obese mice; assay: carcass lipid of genetically obese mice after daily oral dosing for 28 days (anti-obesity); type: in vivo, mouse (genetically obese); conditions: for g - lipid per mouse, Treated: daily for 28 days; for anti-obesity activity (in words): general statement, no dose given
Experimental: (i) The compounds and a comparison compound (salbutamol) were dosed daily in water or carboxymethylcellulose suspension to genetically obese mice by oral gavage for 28 days. At the end of that time the carcass composition was determined.

[2] = test system: blood glucose; assay: hypoglycaemic activity: reduction in area under blood glucose curve after glucose load in fasted mice; type: in vivo, female CFLP mice; conditions: for inhibition in vivo at 5 mg/kg: Mus musculus, po, 2 h, 5 mg/kg po, 30 min before glucose load 1 g/kg sc, 2 hour period, versus control mice; for anti-hyperglycaemic activity (in words): general statement, no dose given
Experimental: Female CFLP mice, weighing approximately 25 g, were fasted for 24 hours prior to the study. The compounds under study were dosed orally (20 mg and 5 mg/kg) to each of 8 mice. 30 minutes later a blood sample ([…]) was obtained from the tail for the analysis of blood glucose. Immediately after taking this blood sample, each mouse was given a glucose load (1 g/kg body weight sub-cutaneously). Blood samples were then obtained from each mouse at 30 minute intervals for 120 minutes.
Compounds that produced a significant (P<0.05) reduction of blood glucose, compared with control mice given water, at any time interval were considered active. The area under the blood glucose curve over the 2 hour period after giving the glucose load was calculated for each compound and compared with the value for control animals. Thus a compound would give a 100% reduction in the area under the blood glucose curve if the blood glucose was maintained at the same level as in untreated fasted animals. Reduction in the glucose curve of more than 100% indicate that a compound, in spite of being given a glucose load, maintained blood glucose levels below that found in control fasted mice.

[3] = test system: CFLP mice; assay: acute toxicity, single lethal dose; type: in vivo; conditions: po
Text: Other compounds of the invention have similar low toxicities.

[4] = test system: 5-hydroxytryptamine-induced bronchoconstriction; assay: bronchodilator potency in anaesthetised artificially respired guinea pig (Konzett-Rossler preparation); type: in vivo; conditions: inhibition of 5-hydroxytryptamine-induced bronchoconstriction
[5] = relative potency / activity (test not specified)

| Structure (SMILES) | anti-obesity activity (in words) [1] | inhibition in vivo at 5 mg/kg [2] [%] | anti-hyperglycaemic activity (in words) [2] | further results |
| --- | --- | --- | --- | --- |
| COC(=O)c1ccc(CC(C)NCC(O)c2ccc(O)c(CO)c2)cc1 (stereo not drawn) [Example 1] | particularly worthy of mention in view of their anti-obesity activity | 157 | particularly worthy of mention in view of their anti-hyperglycaemic activity | g - lipid per mouse, Treated ([1]; 8 mg/kg po, control 23.3 ± 0.7): 20.8 ± 0.7 g; single lethal dose [3]: > 900 mg/kg; bronchodilator potency relative to salbutamol [4]: one twelfth as potent as salbutamol |
| COC(=O)c1ccc(CC(C)NCC(O)c2ccc(O)c(CO)c2)cc1 (stereo not drawn) [21 (higher melting), N-[2-(4-carbomethoxyphenyl)-1-methylethyl]-2-hydroxy-2-(4-hydroxy-3-hydroxymethylphenyl) ethanamine] | particularly worthy of mention in view of their anti-obesity activity | – | particularly worthy of mention in view of their anti-hyperglycaemic activity | relative potency / activity (in words) [5]: more potent diastereoisomer |
| COC(=O)c1ccc(CC(C)NCC(O)c2ccccc2)cc1 (stereo not drawn) [Example 59 (mp 83°-4°), N-[2-(4-carbomethoxyphenyl)-1-methylethyl]-2-hydroxy-2-phenylethanamine] | – | – | – | relative potency / activity (in words) [5]: more potent diastereoisomer |
| COC(=O)c1ccc(CC(C)NCC(O)c2ccccc2)cc1 (stereo not drawn) [Example 22, N-(2-[4-Carbomethoxyphenyl]-1-methylethyl)-2-hydroxy-2-phenylethanamine] | particularly worthy of mention in view of their anti-obesity activity | 172 | particularly worthy of mention in view of their anti-hyperglycaemic activity | g - lipid per mouse, Treated ([1]; 9 mg/kg po, control 18.9 ± 0.66): 13.9 ± 0.65 g |
| COC(=O)c1ccc(CC(C)NCC(O)c2ccccc2Cl)cc1 (stereo not drawn) [Example 28, N-(2-[4-Carbomethoxyphenyl]-1-methylethyl)-2-(2-chlorophenyl)-2-hydroxyethanamine] | – | 37 | – | g - lipid per mouse, Treated ([1]; 19 mg/kg po, control 17.0 ± 0.67): 14.9 ± 0.37 g |
| COC(=O)c1ccc(CCCC(C)NCC(O)c2ccc(O)c(CO)c2)cc1 (stereo not drawn) [Example 17] | particularly worthy of mention in view of their anti-obesity activity | 84 | particularly worthy of mention in view of their anti-hyperglycaemic activity | g - lipid per mouse, Treated ([1]; 11 mg/kg po, control 18.9 ± 0.66 (Ex. 12), 17.0 ± 0.67 (Ex. 17)): 14.0 ± 0.97 g |
| COC(=O)c1ccc(CC(C)NCC(O)c2cc(Cl)c(N)c(Cl)c2)cc1 (stereo not drawn) [Example 30, N-(2-[4-Carbomethoxyphenyl]-1-methylethyl)-2-(4-amino-3,5-dichlorophenyl)-2-hydroxyethanamine] | particularly worthy of mention in view of their anti-obesity activity | 141 | particularly worthy of mention in view of their anti-hyperglycaemic activity | g - lipid per mouse, Treated ([1]; 22 mg/kg po, control 19.1 ± 0.47): 14.0 ± 0.57 g |
